Blank lines part the entries; values can stand above or below the compound they belong to.
Assays:
Assay type in all cases: biochemical
[1] = tested on: HIV reverse transcriptase; assay: HIV reverse transcriptase activity with ADPRT, poly-ADP-ribosylated ADPRT and drug inhibitors of poly-ADP-ribosylation (FIG. 3, Example 4); settings: for HIV reverse transcriptase activity: absence of ADPRT
Description: Reverse transcriptase activity assay conditions were as described in Example 1. NAD was added in a concentration of 62.5 μM and ADPRT in a concentration of 0.5 μM. Inhibitors 6-amino-1,2-benzopyrone (6-ABP) or 5-iodo-6-amino-1,2-benzopyrone (5-I-6-ABP) were added in concentrations 1000 μM, and 400 μM, respectively.
(§1) The medium (coctail) comprises 50 mM Tris-HCl pH 8.0; 60 mM KCl; 7 mM MgCl2; 40 mM DTT (dithiothreitol) 2 mM GSH (glutathione); 60 μg/ml whole histones/ml (Grade A, Sigma, St. Louis); poly (rA) oligo (dT)12-18 (Pharmacia, Piscataway, N. J.) and 50 μM M(0.1 μCalif.) [alfa ^32 P]TTP (ICN, Irvine, CA.) (Reverse transcriptase uses poly(rA) as template and the annealed oligo(dT) as primer for incorporating the labeled TTP).
(§2) The reverse polymerization was started by adding 0.02 μg of recombinant reverse transcriptase protein (ERC BioServices, Rockville, Md.) into 50 μl of coctail. The reaction mixture incubated at 25° C. for 5 minutes.
(§3) The reaction was stopped by adding 2 ml of ice cold 20% trichloroacetic acid and the precipitated nucleic acids were filtered onto glass fiber filters, dried with ethanol and their incorporated radioactivity counted in a liquid scintillation counter.
Using generally the reverse transcriptase procedure described in Example 1, three groups of samples were prepared. The first group contained the coctail described in the Example 1 containing poly (rA).cndot.oligo (dT)12-18 as a template and drugs 6-ABP or 5-I-6-ABP in concentration 1,000 μM and 400 μM, respectively, without the presence of ADPRT.
The second group contained the same ingredients as group 1 but ADPRT at a concentration to 0.5 μM was added to all samples.
The third group contained the same ingredients as group 2 but NAD in a concentration of 62.5 μM was added.

[2] = tested on: Human recombinant HIV reverse transcriptase; assay: Effect of unmodified and ADP-ribosylated ADPRT on HIV reverse transcriptase activity (FIG. 1, Example 2)
Description: The basic assay system for measurement of reverse transcriptase activity is described in Example 1. Human recombinant HIV reverse transcriptase used in the assay was obtained from HIV, ERC Bioservices. ADPRT used in this experiment is highly purified ADPRT protein prepared according to Anal. Biochem., 167:160 (1987). ADPRT was added to the reverse transcriptase assay system at various concentrations ranging from 0.01 to 1 μM. When the effect of […], pre-ADP-ribosylated ADPRT was assayed, the ADPRT enzyme was incubated with NAD and cofactors according to FEBS Letters, 212:73 (1987). The poly ADP-ribosylated ADPRT was isolated by centricon ultrafiltration and added in various concentration as shown in FIG. 1.
as §1, §2, §3
A small amount (300 μg) of ADPRT (0.5 μM) of final concentration was incubated with 100 mM NAD in 3 ml of 25 mM Tris-HCl (pH 7.4), 0.3% Tween 20 at 25° C. for three hours to render the protein auto-poly (ADP-ribosyl)ated, then concentrated to 3 mg/ml. Using generally the reverse transcriptase assay conditions as described in Example 1, the effect of automodified and unmodified ADPRT was monitored.

[3] = tested on: recombinant human HIV reverse transcriptase; assay: Activation of HIV reverse transcriptase by auto-(ADP-ribosylated) ADPRT (FIG. 2, Example 3); settings: 0.5 μM ADPRT, no NAD
Description: Such abrogation and its time dependency is further illustrated in FIG. 2 wherein the activation of HIV reverse transcriptase by auto-ADP-ribosylated ADPRT is expressed as % of reverse transcriptase activity. The experimental conditions are as described in Example 3. […] Samples in columns 3-5 were incubated for time periods as indicated.
as §1, with “TTP). […]” for “TTP).”
The reaction was stopped by adding 2 ml of ice cold 20% trichloroacetic acid and the precipitated nucleic acids were filtered onto glass fiber filters, dried with ethanol and their incorporated radioactivity counted in a liquid scintillation counter. […]
The mixture was incubated at 25° C. for 5, 10 and 25 minutes, then the recombinant reverse transcriptase was added and the mixture was incubated for additional 5 minutes. The reaction was stopped, as described above, the precipitate was filtered and radioactivity counted.

activity of reverse transcriptase ([1]; 0.5 μM ADPRT + 62.5 μM NAD + 5-I-6-ABP 400 μM (column 9)): the same as the one seen in column 6 | activity of reverse transcriptase ([1]; 0.5 μM ADPRT + 5-I-6-ABP 400 μM): only very slightly | activity of reverse transcriptase ([1]; 0.5 μM ADPRT + 5-I-6-ABP 400 μM, listed as 5-I-ABP, 400 µM): about 50% | HIV reverse transcriptase activity ([1]; 5-I-6-ABP 400 μM): did not affect
Compound: Nc1ccc2oc(=O)ccc2c1I [5-I-6-ABP, 5-iodo-6-amino-1,2-benzopyrone]

reverse transcriptase activity ([1]; 0.5 μM ADPRT + 62.5 μM NAD + 6-ABP 1000 μM): about 60% | activity of reverse transcriptase ([1]; 0.5 μM ADPRT + 6-ABP 1000 μM): only very slightly | activity of reverse transcriptase ([1]; 0.5 μM ADPRT + 6-ABP 1000 μM, 1000 µM): about 50% | HIV reverse transcriptase activity ([1]; 6-ABP 1000 μM): did not affect
Compound: Nc1ccc2oc(=O)ccc2c1 [6-ABP, 6-amino-1,2-benzopyrone]

Compound: adenosine diphosphoribosyl transferase [ADPRT]
inhibition of reverse transcriptase activity ([2]; 0.05 μM pure ADPRT): 10% | effect on reverse transcription (FIG. 1 summary) ([2]; 0.01 to 1 μM added to RT assay): inhibits RT in a concentration-dependent manner | inhibition of reverse transcriptase ([2]; around 1-1.3 μM ADPRT): 75-80% | activity of reverse transcriptase ([2]; around 1-1.3 μM ADPRT, control 100%): about 20% | depression/inhibition of reverse transcriptase activity [3]: about 50% | activity of reverse transcriptase ([1]; 0.5 μM pure ADPRT only (column 4)): about 50%

Source: US6316495A, “Method for inhibition of retroviral replication” (priority 1999, dated 2001)
